One assay addresses T1, HiBit-BRG1 (Homo sapiens, UniProt P51532).
T1 construct: expressed in transfected cells
The experiment in a line: HiBit-BRG1 cell-based degradation assay (Nano-Glo HiBiT Lytic Detection). Particulars: HeLa cells expressing HiBit-BRG1 and LgBit, 24 h; for DC50: read-out: BRG1 HiBit Degradation IC50; for Dmax: read-out: BRG1 HiBit Degradation Maximum (%). An outline of the steps: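 HeLa cells stably expressing HiBiT-BRG1 plus LgBit, 5000/well, treated 24 h, then lysed with Nano-Glo HiBiT lytic reagent and luminescence read. % degradation normalised between DMSO (high control) and 2 μM reference BRM/BRG1 degrader (low control).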

For a further assay, the target named is T2, HiBiT-BRM (Homo sapiens, UniProt P51531).
T2 construct: expressed in transfected cells
The experiment in a line: HiBiT-BRM cell-based degradation assay (Nano-Glo HiBiT Lytic Detection). Particulars: HeLa cells expressing HiBiT-BRM, 24 h; for DC50: read-out: BRM HiBit Degradation IC50. An outline of the steps:
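HeLa cells stably expressing HiBiT-tagged BRM were treated for 24 h, then lysed with LgBiT-containing Nano-Glo reagent and luminescence read. % degradation scaled between DMSO (high control) and 2 μM reference BRM/BRG1 degrader (low control).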

Counter-ions that a name gives are not always drawn.

T1 sequence (P51532 whole entry): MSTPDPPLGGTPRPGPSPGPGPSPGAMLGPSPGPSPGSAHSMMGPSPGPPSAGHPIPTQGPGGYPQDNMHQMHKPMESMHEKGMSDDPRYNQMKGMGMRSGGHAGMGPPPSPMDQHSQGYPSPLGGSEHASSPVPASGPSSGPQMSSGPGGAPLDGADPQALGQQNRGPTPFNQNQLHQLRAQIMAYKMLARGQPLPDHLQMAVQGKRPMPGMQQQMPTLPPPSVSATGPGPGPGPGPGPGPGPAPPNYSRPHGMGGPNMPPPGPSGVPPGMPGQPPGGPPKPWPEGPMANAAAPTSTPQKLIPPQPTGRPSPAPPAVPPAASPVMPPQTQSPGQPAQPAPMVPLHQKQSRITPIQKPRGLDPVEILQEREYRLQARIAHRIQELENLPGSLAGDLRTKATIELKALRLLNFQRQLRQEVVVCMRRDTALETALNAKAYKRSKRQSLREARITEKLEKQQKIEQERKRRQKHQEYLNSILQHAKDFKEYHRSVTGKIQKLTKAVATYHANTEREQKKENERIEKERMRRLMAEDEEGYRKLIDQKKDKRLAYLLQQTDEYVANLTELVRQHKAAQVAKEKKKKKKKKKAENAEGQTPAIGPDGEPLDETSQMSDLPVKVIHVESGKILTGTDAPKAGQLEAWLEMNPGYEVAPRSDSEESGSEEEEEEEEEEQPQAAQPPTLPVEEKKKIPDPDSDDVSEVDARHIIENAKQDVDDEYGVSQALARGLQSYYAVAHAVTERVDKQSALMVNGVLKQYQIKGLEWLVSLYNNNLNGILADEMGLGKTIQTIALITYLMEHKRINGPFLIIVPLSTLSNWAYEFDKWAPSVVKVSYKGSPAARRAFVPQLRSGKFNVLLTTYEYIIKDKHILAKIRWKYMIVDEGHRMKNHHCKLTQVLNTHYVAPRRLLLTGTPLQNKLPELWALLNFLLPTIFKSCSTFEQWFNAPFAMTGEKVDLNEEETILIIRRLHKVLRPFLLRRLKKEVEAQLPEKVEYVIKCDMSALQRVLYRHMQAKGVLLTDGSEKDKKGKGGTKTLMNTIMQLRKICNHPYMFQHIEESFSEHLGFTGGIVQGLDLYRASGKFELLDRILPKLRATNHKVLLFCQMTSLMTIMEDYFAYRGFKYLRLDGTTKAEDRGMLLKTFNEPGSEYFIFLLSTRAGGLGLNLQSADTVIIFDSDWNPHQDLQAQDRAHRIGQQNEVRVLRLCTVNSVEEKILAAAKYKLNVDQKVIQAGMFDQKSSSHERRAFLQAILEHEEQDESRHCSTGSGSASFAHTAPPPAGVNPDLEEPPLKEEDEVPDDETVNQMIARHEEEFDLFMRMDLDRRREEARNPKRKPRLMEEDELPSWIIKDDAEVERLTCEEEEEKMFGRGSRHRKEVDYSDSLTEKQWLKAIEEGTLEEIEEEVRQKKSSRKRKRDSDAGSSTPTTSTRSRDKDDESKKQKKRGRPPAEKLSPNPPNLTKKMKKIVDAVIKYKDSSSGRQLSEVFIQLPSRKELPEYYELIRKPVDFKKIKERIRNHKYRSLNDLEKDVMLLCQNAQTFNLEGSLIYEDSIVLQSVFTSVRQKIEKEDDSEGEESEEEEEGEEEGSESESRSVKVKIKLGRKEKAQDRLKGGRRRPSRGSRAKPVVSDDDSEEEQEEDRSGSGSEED
T2 sequence (P51531 whole entry): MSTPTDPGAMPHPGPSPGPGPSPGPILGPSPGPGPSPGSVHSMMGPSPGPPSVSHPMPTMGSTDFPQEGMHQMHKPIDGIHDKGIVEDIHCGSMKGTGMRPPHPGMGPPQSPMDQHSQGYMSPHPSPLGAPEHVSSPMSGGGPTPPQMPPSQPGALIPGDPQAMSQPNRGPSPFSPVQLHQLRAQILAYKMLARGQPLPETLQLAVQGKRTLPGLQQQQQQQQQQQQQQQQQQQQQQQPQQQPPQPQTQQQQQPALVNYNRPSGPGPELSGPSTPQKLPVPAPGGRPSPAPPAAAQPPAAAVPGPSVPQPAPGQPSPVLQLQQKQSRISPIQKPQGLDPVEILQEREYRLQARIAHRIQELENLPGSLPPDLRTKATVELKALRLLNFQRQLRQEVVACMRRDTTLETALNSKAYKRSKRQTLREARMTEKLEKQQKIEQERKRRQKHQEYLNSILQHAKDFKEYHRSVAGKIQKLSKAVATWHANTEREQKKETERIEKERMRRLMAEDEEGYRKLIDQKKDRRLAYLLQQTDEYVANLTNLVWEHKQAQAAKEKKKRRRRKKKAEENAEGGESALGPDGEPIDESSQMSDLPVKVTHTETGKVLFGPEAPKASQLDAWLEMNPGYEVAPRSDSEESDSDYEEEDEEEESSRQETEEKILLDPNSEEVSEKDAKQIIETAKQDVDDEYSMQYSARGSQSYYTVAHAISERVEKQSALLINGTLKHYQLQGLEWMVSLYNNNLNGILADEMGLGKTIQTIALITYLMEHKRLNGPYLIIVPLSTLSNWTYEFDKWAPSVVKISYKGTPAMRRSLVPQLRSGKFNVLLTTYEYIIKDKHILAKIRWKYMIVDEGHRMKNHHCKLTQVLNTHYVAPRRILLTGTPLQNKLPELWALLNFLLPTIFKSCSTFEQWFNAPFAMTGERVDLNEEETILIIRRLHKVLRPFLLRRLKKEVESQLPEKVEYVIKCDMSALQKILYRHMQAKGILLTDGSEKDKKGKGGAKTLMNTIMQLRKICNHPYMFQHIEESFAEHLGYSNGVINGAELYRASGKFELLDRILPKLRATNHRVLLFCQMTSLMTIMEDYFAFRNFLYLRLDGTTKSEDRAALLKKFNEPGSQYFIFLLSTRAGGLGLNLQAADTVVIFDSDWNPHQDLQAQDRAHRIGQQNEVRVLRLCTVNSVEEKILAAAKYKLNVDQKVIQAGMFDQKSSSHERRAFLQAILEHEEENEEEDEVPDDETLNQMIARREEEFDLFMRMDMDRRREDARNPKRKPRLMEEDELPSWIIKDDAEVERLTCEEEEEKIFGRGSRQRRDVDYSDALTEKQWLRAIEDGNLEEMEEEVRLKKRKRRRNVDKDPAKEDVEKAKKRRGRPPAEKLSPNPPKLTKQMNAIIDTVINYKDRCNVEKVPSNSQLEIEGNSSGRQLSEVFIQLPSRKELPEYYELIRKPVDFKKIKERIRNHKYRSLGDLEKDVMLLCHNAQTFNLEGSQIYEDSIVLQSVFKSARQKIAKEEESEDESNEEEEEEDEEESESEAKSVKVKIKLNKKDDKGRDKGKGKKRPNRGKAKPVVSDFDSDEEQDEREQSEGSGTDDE

`Cc1ncsc1-c1ccc(CNC(=O)[C@@H]2C[C@@H](O)CN2C(=O)[C@@H](NC(=O)CCCCCCCC(=O)NCc2ccc(CCOc3cc(-c4ccccc4O)nnc3N)cc2)C(C)(C)C)cc1` [Compound 33]: on HiBit-BRG1, the DC50 is more than 0.1 µM and the Dmax was more than 50%. For the same compound, on HiBiT-BRM, the “BRM HiBit Degradation Maximum (%)” value was “A (“A” indicates maximum degradation ≥75%)” and the DC50 was more than 0.1 µM.

Turning to `Cc1ncsc1-c1ccc(CNC(=O)[C@@H]2C[C@@H](O)CN2C(=O)[C@@H](NC(=O)COCCOCCOCCOCCOCCNC(=O)c2ccc(CCOc3cc(-c4ccccc4O)nnc3N)cc2)C(C)(C)C)cc1` [Compound 167, (2S,4R)-1-((S)-1-(4-(2-((3-amino-6-(2-hydroxyphenyl)pyridazin-4-yl)oxy)ethyl)phenyl)-21-(tert-butyl)-1,19-dioxo-5,8,11,14,17-pentaoxa-2,20-diazadocosan-22-oyl)-4-hydroxy-N-(4-(4-methylthiazol-5-yl)benzyl)pyrrolidine-2-carboxamide], at HiBit-BRG1, the DC50 is more than 1 µM and the Dmax was less than 50%. Also, at HiBiT-BRM, the “BRM HiBit Degradation Maximum (%)” value is recorded as “B (“B” indicates maximum degradation ≥50%)” and the DC50 was more than 1 µM.

Consider `Nc1nnc(-c2ccccc2O)cc1OCCc1ccc(C(=O)NCCCCCCCCNC(=O)COc2cccc3c2C(=O)N(C2CCC(=O)NC2=O)C3=O)cc1` (stereo not shown) [Compound 41, N-(8-[[4-(2-[[3-amino-6-(2-hydroxyphenyl)pyridazin-4-yl]oxy]ethyl)phenyl]formamido]octyl)-2-[[2-(2,6-dioxopiperidin-3-yl)-1,3-dioxoisoindol-4-yl]oxy]acetamide], for which, at HiBit-BRG1, the DC50 is more than 1 µM and the Dmax is less than 50%. Further, at HiBiT-BRM, the “BRM HiBit Degradation Maximum (%)” value is given as “C (“C” indicates maximum degradation <50%)” and the DC50 was more than 1 µM.

For the compound `Cc1ncsc1-c1ccc(CNC(=O)[C@@H]2C[C@@H](O)CN2C(=O)[C@@H](NC(=O)CCCN2CCN(CCOc3cc(N4[C@@H]5CC[C@H]4CN(c4cc(-c6ccccc6O)nnc4N)C5)ccn3)CC2)C(C)(C)C)cc1` [Compound 242, (2S,4R)-1-((2S)-2-(4-(4-(2-((4-(3-(3-amino-6-(2-hydroxyphenyl)pyridazin-4-yl)-3,8-diazabicyclo[3.2.1]octan-8-yl)pyridin-2-yl)oxy)ethyl)piperazin-1-yl)butanamido)-3,3-dimethylbutanoyl)-4-hydroxy-N-(4-(4-methylthiazol-5-yl)benzyl)pyrrolidine-2-carboxamide], at HiBit-BRG1, the DC50 was more than 1 µM and the Dmax is less than 50%. Also, at HiBiT-BRM, the “BRM HiBit Degradation Maximum (%)” value was “A (“A” indicates maximum degradation ≥75%)” and the DC50 was more than 0.1 µM.

`Cc1ncsc1-c1ccc(CNC(=O)[C@@H]2C[C@@H](O)CN2C(=O)[C@@H](NC(=O)CCN2CCC(OC3CCN(C(=O)c4ccc(CCOc5cc(-c6ccccc6O)nnc5N)cc4)CC3)CC2)C(C)(C)C)cc1` [Compound 202, (2S,4R)-1-((S)-2-(3-(4-((1-(4-(2-((3-amino-6-(2-hydroxyphenyl)pyridazin-4-yl)oxy)ethyl)benzoyl)piperidin-4-yl)oxy)piperidin-1-yl)propanamido)-3,3-dimethylbutanoyl)-4-hydroxy-N-(4-(4-methylthiazol-5-yl)benzyl)pyrrolidine-2-carboxamide]: on HiBit-BRG1, the DC50 is more than 1 µM and the Dmax is less than 50%. Further, at HiBiT-BRM, the “BRM HiBit Degradation Maximum (%)” value was “B (“B” indicates maximum degradation ≥50%)” and the DC50 was more than 1 µM.

Take `Cc1ncsc1-c1ccc([C@H](C)NC(=O)[C@@H]2C[C@@H](O)CN2C(=O)[C@@H](NC(=O)CCCCCCCCCC(=O)NCc2ccc(CCOc3cc(-c4ccccc4O)nnc3N)cc2)C(C)(C)C)cc1` [Compound 198, N1-(4-(2-((3-amino-6-(2-hydroxyphenyl)pyridazin-4-yl)oxy)ethyl)benzyl)-N11-((S)-1-((2S,4R)-4-hydroxy-2-(((S)-1-(4-(4-methylthiazol-5-yl)phenyl)ethyl)carbamoyl)pyrrolidin-1-yl)-3,3-dimethyl-1-oxobutan-2-yl)undecanediamide]: at HiBit-BRG1, the DC50 was more than 1 µM and the Dmax was less than 50%. For the same compound, at HiBiT-BRM, the “BRM HiBit Degradation Maximum (%)” value is listed as “A (“A” indicates maximum degradation ≥75%)” and the DC50 is more than 0.01 µM.

Turning to `Nc1nnc(-c2ccccc2O)cc1OCCc1ccc(CNC(=O)CCCCCCCOc2cccc3c2C(=O)N(C2CCC(=O)NC2=O)C3=O)cc1` (stereo not shown) [Compound 69, N-[[4-(2-[[3-amino-6-(2-hydroxyphenyl)pyridazin-4-yl]oxy]ethyl)phenyl]methyl]-8-[[2-(2,6-dioxopiperidin-3-yl)-1,3-dioxoisoindol-4-yl]oxy]octanamide], on HiBit-BRG1, the DC50 is more than 1 µM and the Dmax was less than 50%. On HiBiT-BRM, the “BRM HiBit Degradation Maximum (%)” value is “C (“C” indicates maximum degradation <50%)” and the DC50 was more than 1 µM.

On to `CN(CCc1ccc(CNC(=O)CCCCOc2cccc3c2C(=O)N(C2CCC(=O)NC2=O)C3=O)cc1)c1cc(-c2ccccc2O)nnc1N` (stereo not shown) [Compound 146, N-(4-(2-((3-amino-6-(2-hydroxyphenyl)pyridazin-4-yl)(methyl)amino)ethyl)benzyl)-5-((2-(2,6-dioxopiperidin-3-yl)-1,3-dioxoisoindolin-4-yl)oxy)pentanamide], for which, on HiBit-BRG1, the DC50 was more than 1 µM and the Dmax was less than 50%. Moreover, on HiBiT-BRM, the “BRM HiBit Degradation Maximum (%)” value is reported as “C (“C” indicates maximum degradation <50%)” and the DC50 is more than 1 µM.

With `Cc1ncsc1-c1ccc([C@H](C)NC(=O)[C@@H]2C[C@@H](O)CN2C(=O)[C@@H](c2cc(OCCN3CCC4(CC3)CCN(C(=O)c3ccc(CCOc5cc(-c6ccccc6O)nnc5N)cc3)CC4)no2)C(C)C)cc1` [Compound 209, (2S,4R)-1-[(2R)-2-[3-(2-[9-[4-(2-[[3-amino-6-(2-hydroxyphenyl)pyridazin-4-yl]oxy]ethyl)benzoyl]-3,9-diazaspiro[5.5]undecan-3-yl]ethoxy)-1,2-oxazol-5-yl]-3-methylbutanoyl]-4-hydroxy-N-[(1S)-1-[4-(4-methyl-1,3-thiazol-5-yl)phenyl]ethyl]pyrrolidine-2-carboxamide], on HiBit-BRG1, the DC50 was more than 0.1 µM and the Dmax was more than 75%. Further, on HiBiT-BRM, the “BRM HiBit Degradation Maximum (%)” value was “A (“A” indicates maximum degradation ≥75%)” and the DC50 was more than 0.01 µM.

Turning to `Nc1nnc(-c2ccccc2O)cc1OCCc1ccc(CNCCNc2cccc3c2C(=O)N(C2CCC(=O)NC2=O)C3=O)cc1` (stereo not shown) [Compound 109, 4-[[2-([[4-(2-[[3-amino-6-(2-hydroxyphenyl)pyridazin-4-yl]oxy]ethyl)phenyl]methyl]amino)ethyl]amino]-2-(2,6-dioxopiperidin-3-yl)isoindole-1,3-dione, formic acid salt], at HiBit-BRG1, the DC50 is more than 1 µM and the Dmax is less than 50%. Moreover, on HiBiT-BRM, the “BRM HiBit Degradation Maximum (%)” value was “C (“C” indicates maximum degradation <50%)” and the DC50 was more than 1 µM.

On to `Nc1nnc(-c2ccccc2O)cc1OCCc1ccc(CNC(=O)CCCCOc2ccc3c(c2)CN(C2CCC(=O)NC2=O)C3=O)cc1` (stereo not shown) [Compound 129, N-(4-(2-((3-amino-6-(2-hydroxyphenyl)pyridazin-4-yl)oxy)ethyl)benzyl)-5-((2-(2,6-dioxopiperidin-3-yl)-1-oxoisoindolin-5-yl)oxy)pentanamide], for which the DC50 at HiBit-BRG1 was more than 1 µM. Moreover, at HiBiT-BRM, the “BRM HiBit Degradation Maximum (%)” value is “C (“C” indicates maximum degradation <50%)” and the DC50 was more than 1 µM.

As for `Cc1ncsc1-c1ccc(CNC(=O)[C@@H]2C[C@@H](O)CN2C(=O)[C@@H](NC(=O)CCCCCCCCCCCCCCCC(=O)N(C)Cc2ccc(CCOc3cc(-c4ccccc4O)nnc3N)cc2)C(C)(C)C)cc1` [Compound 228, N1-(4-(2-((3-amino-6-(2-hydroxyphenyl)pyridazin-4-yl)oxy)ethyl)benzyl)-N17-((S)-1-((2S,4R)-4-hydroxy-2-((4-(4-methylthiazol-5-yl)benzyl)carbamoyl)pyrrolidin-1-yl)-3,3-dimethyl-1-oxobutan-2-yl)-N1-methylheptadecanediamide], on HiBit-BRG1, the DC50 was more than 0.1 µM and the Dmax was more than 75%. Further, at HiBiT-BRM, the “BRM HiBit Degradation Maximum (%)” value is reported as “A (“A” indicates maximum degradation ≥75%)” and the DC50 is more than 0.1 µM.

Take `Cc1ncsc1-c1ccc([C@H](C)NC(=O)[C@@H]2C[C@@H](O)CN2C(=O)[C@@H](c2cc(OCCN3[C@@H]4CC[C@H]3CN(C(=O)c3ccc(CCOc5cc(-c6ccccc6O)nnc5N)cc3)C4)no2)C(C)C)cc1` [Compound 221, (2S,4R)-1-[(2R)-2-[3-(2-[3-[4-(2-[[3-amino-6-(2-hydroxyphenyl)pyridazin-4-yl]oxy]ethyl)benzoyl]-3,8-diazabicyclo[3.2.1]octan-8-yl]ethoxy)-1,2-oxazol-5-yl]-3-methylbutanoyl]-4-hydroxy-N-[(1S)-1-[4-(4-methyl-1,3-thiazol-5-yl)phenyl]ethyl]pyrrolidine-2-carboxamide]: at HiBit-BRG1, the DC50 was less than 0.01 µM and the Dmax was more than 75%. At HiBiT-BRM, the “BRM HiBit Degradation Maximum (%)” value is “A (“A” indicates maximum degradation ≥75%)” and the DC50 was more than 0.01 µM.

For the compound `Nc1nnc(-c2ccccc2O)cc1OCCc1ccc(CNCCOc2cccc3c2C(=O)N(C2CCC(=O)NC2=O)C3=O)cc1` (stereo not shown) [Compound 115, 4-[2-([[4-(2-[[3-amino-6-(2-hydroxyphenyl)pyridazin-4-yl]oxy]ethyl)phenyl]methyl]amino)ethoxy]-2-(2,6-dioxopiperidin-3-yl)isoindole-1,3-dione], on HiBit-BRG1, the DC50 is more than 1 µM and the Dmax was less than 50%. Further, on HiBiT-BRM, the “BRM HiBit Degradation Maximum (%)” value was “C (“C” indicates maximum degradation <50%)” and the DC50 is more than 1 µM.
